≈ marks a conversion by molar mass, not a printed value.
Tests used:
[1] = target: C-kinase (protein kinase C); experiment: C-Kinase inhibitory activity test; type: biochemical; conditions: enzyme activity inhibited 50%
MCF 7 cells = experiment: MCF 7 cell growth inhibition test; type: cell-based; conditions: Homo sapiens, MCF7; MCF-7 cells, contact for 72 hours; read-out: cell growth inhibitory activity IC50, MCF-7
Description: (§1) Compound (I) was examined for C-kinase inhibitory activity and cell growth inhibitory activity by the following method.
(1) MCF 7 cell growth inhibition test:
(§2) MCF 7 cells (4.5×10^4 cells/ml) prepared in RPMI 1640 medium containing 10% fetal calf serum, 10 μg/ml insulin and 10^-8 M estradiol are put into wells of a 96-well microtiter plate in the amount of 0.1 ml per each well. After incubation at 37° C. overnight in CO2 -incubator, 0.05 ml each of a test sample appropriately diluted with the culture medium is added to each well. In the case of contact for 72 hours, the cells are further cultured in CO2 -incubator, and then the culture supernatant is removed and the wells are washed once with PBS(-). Thereafter, 0.1 ml of fresh medium is added to each well, followed by culturing at 37° C. for 72 hours in CO2 -incubator. After the culture supernatant is removed, 0.1 ml of the culture medium containing 0.02% Neutral Red is added to each well, followed by culturing at 37° C. for one hour in CO2 -incubator, whereby the cells are stained. Then, the culture supernatant is removed and the cells are washed once with physiological saline. The pigment is extracted with 0.001N HCl/30% ethanol and absorption is measured at 550 nm with a microplate reader. By comparing the absorption of intact cells with those of the cells treated with a test compound in known concentrations, the concentration of the test compound at which growth of the cells is inhibited 50% is calculated as IC50.

COLO320DM cells = experiment: COLO320DM cell growth inhibition test; type: cell-based; conditions: Homo sapiens, COLO 320DM; COLO320DM cells, cells counted with a microcell counter; read-out: cell growth inhibitory activity IC50, COLO320DM
Description: as §2, with “After” for “MCF 7 cells (4.5×10^4 cells/ml) prepared in RPMI 1640 medium containing 10% fetal calf serum, 10 μg/ml insulin and 10^-8 M estradiol are put into wells of a 96-well microtiter plate in the amount of 0.1 ml per each well. After”, “reader.” for “reader. By comparing the absorption of intact cells with those of the cells treated with a test compound in known concentrations, the concentration of the test compound at which growth of the cells is inhibited 50% is calculated as IC50.”
(4) COLO320DM cell growth inhibition test:
Thereafter, the test is carried out in the same manner as in (1) except that the cells are counted with a microcell counter.

HeLaS3 cells = experiment: HeLaS3 cell growth inhibition test; type: cell-based; conditions: Homo sapiens, HeLa S3; HeLaS3 cells, contact for 72 hours; read-out: cell growth inhibitory activity IC50, HeLaS3
Description: as §1, §2
(3) HeLaS3 cell growth inhibition test:
HeLaS3 cells (3×10^4 cells/ml) prepared in MEM medium containing 10% fetal calf serum and 2 mM glutamine are put into wells of a 96-well microtiter plate in the amount of 0.1 ml per each well.
Thereafter, the test is carried out in the same manner as in (1).

Structure (SMILES)	C-Kinase inhibitory activity IC50 [1] [µg/mL]	IC50 (HeLaS3 cells) [µg/mL]	IC50 (MCF 7 cells) [µg/mL]	IC50 (COLO320DM cells) [µg/mL]
C[C@]12O[C@H](C[C@]1(O)CO)n1c3ccc(O)cc3c3c4c(c5c6ccccc6n2c5c31)CNC4=O (relative stereo) [Compound 21]	0.01	0.46 (≈ 1.01 µM)	0.76 (≈ 1.67 µM)	0.29 (≈ 0.637 µM)
COC(=O)[C@@]1(O)C[C@H]2O[C@]1(C)n1c3ccc(O)cc3c3c4c(c5c6cc(O)ccc6n2c5c31)C(=O)NC4 (relative stereo) [Compound 16]	0.005	0.44 (≈ 0.881 µM)	0.84 (≈ 1.68 µM)	–
COC(=O)[C@@]1(O)C[C@H]2O[C@]1(C)n1c3ccccc3c3c4c(c5c6cc(N)ccc6n2c5c31)C(=O)NC4 (relative stereo) [Compound 9]	0.175	0.01 (≈ 0.0207 µM)	0.13 (≈ 0.269 µM)	0.05 (≈ 0.104 µM)
Cc1ccc2c(c1)c1c3c(c4c5ccccc5n5c4c1n2[C@H]1C[C@](O)(CO)[C@]5(C)O1)CNC3=O (relative stereo) [Compound 26]	–	0.03 (≈ 0.0662 µM)	0.26 (≈ 0.573 µM)	0.03 (≈ 0.0662 µM)
C[C@]12O[C@H](C[C@]1(O)CNCC(=O)O)n1c3ccccc3c3c4c(c5c6ccccc6n2c5c31)CNC4=O (relative stereo) [Compound 32]	0.01	0.22 (≈ 0.443 µM)	0.74 (≈ 1.49 µM)	> 1
COC(=O)[C@@]1(O)C[C@H]2O[C@]1(C)n1c3ccccc3c3c4c(c5c6cc(N(C)C)ccc6n2c5c31)C(=O)NC4 (relative stereo) [Compound 12]	–	0.17 (≈ 0.333 µM)	0.36 (≈ 0.705 µM)	0.11 (≈ 0.215 µM)
COC(=O)CNC[C@@]1(O)C[C@H]2O[C@]1(C)n1c3ccccc3c3c4c(c5c6ccccc6n2c5c31)C(=O)NC4 (relative stereo) [Compound 31]	–	0.08 (≈ 0.157 µM)	0.8 (≈ 1.57 µM)	0.31 (≈ 0.607 µM)
CN(C)C=NC[C@@]1(O)C[C@H]2O[C@]1(C)n1c3ccccc3c3c4c(c5c6ccccc6n2c5c31)C(=O)NC4 (relative stereo) [Compound 33]	–	0.08 (≈ 0.162 µM)	0.26 (≈ 0.527 µM)	1 (≈ 2.03 µM)
COC(=O)[C@@]1(O)C[C@H]2O[C@]1(C)n1c3ccc(N)cc3c3c4c(c5c6cc(N)ccc6n2c5c31)C(=O)NC4 (relative stereo) [Compound 10]	0.02	0.07 (≈ 0.141 µM)	0.95 (≈ 1.91 µM)	0.1 (≈ 0.201 µM)
C[C@]12O[C@H](C[C@]1(O)CO)n1c3ccc(N)cc3c3c4c(c5c6ccccc6n2c5c31)CNC4=O (relative stereo) [Compound 23]	0.038	0.15 (≈ 0.33 µM)	0.34 (≈ 0.748 µM)	0.22 (≈ 0.484 µM)
C[C@]12O[C@H](C[C@]1(O)COC(=O)CCC(=O)O)n1c3ccccc3c3c4c(c5c6ccccc6n2c5c31)CNC4=O (relative stereo) [Compound 27]	0.017	0.53 (≈ 0.982 µM)	> 1	> 1
C[C@]12O[C@H](C[C@]1(O)COC1CCCCO1)n1c3ccccc3c3c4c(c5c6ccccc6n2c5c31)CNC4=O (stereo partly shown) [Compound 28]	–	0.2 (≈ 0.382 µM)	1 (≈ 1.91 µM)	0.32 (≈ 0.611 µM)
C[C@]12O[C@H](C[C@]1(O)CO)n1c3ccc(Br)cc3c3c4c(c5c6ccccc6n2c5c31)CNC4=O (relative stereo) [Compound 24]	–	0.06 (≈ 0.116 µM)	0.19 (≈ 0.367 µM)	0.06 (≈ 0.116 µM)
COC(=O)[C@@]1(O)C[C@H]2O[C@]1(C)n1c3ccccc3c3c4c(c5c6cccc(N)c6n2c5c31)C(=O)NC4 (relative stereo) [Compound 11]	–	0.1 (≈ 0.207 µM)	0.47 (≈ 0.974 µM)	0.16 (≈ 0.332 µM)

Continued, in another order:

C-Kinase inhibitory activity IC50 [1] [µg/mL]	IC50 (HeLaS3 cells) [µg/mL]	Structure (SMILES)	IC50 (MCF 7 cells) [µg/mL]	IC50 (COLO320DM cells) [µg/mL]
–	0.5 (≈ 0.953 µM)	CN(C)CCN1C(=O)c2c(c3c4ccccc4n4c3c3c2c2ccccc2n3C2CC(O)(CO)C4(C)O2)C1=O (stereo not shown) [Compound 70]	0.45 (≈ 0.858 µM)	0.41 (≈ 0.782 µM)
–	0.4 (≈ 0.829 µM)	CC12OC(CC1(O)C(=O)NO)n1c3ccccc3c3c4c(c5c6ccccc6n2c5c31)C(=O)NC4=O (stereo not shown) [Compound 76]	0.62 (≈ 1.29 µM)	0.06 (≈ 0.124 µM)
–	> 1	CC12OC(CC1(O)CN)n1c3ccccc3c3c4c(c5c6ccccc6n2c5c31)C(=O)N(N)C4=O (stereo not shown) [Compound 71]	1 (≈ 2.14 µM)	> 1
0.013	0.22 (≈ 0.486 µM)	CC12OC(CC1(O)C=NO)n1c3ccccc3c3c4c(c5c6ccccc6n2c5c31)CNC4=O (stereo not shown) [Compound 50]	–	0.17 (≈ 0.376 µM)
0.02	0.08 (≈ 0.19 µM)	CC12OC(CC13CO3)n1c3ccccc3c3c4c(c5c6ccccc6n2c5c31)CNC4=O (stereo not shown) [Compound 36]	0.52 (≈ 1.23 µM)	0.12 (≈ 0.285 µM)
0.016	0.95 (≈ 2.1 µM)	CC12OC(CC1(O)CO)n1c3ccccc3c3c4c(c5c6ccccc6n2c5c31)C(=O)NC4=O (stereo not shown) [Compound 67]	–	0.18 (≈ 0.397 µM)
–	0.03 (≈ 0.0605 µM)	CC12OC(CC1(O)CNC(=O)CN)n1c3ccccc3c3c4c(c5c6ccccc6n2c5c31)CNC4=O (stereo not shown) [Compound 34]	0.24 (≈ 0.484 µM)	0.17 (≈ 0.343 µM)
0.006	0.07 (≈ 0.151 µM)	CC1=NCC2(CC3OC2(C)n2c4ccccc4c4c5c(c6c7ccccc7n3c6c42)C(=O)NC5)O1 (stereo not shown) [Compound 56]	0.4 (≈ 0.865 µM)	1 (≈ 2.16 µM)
0.046	0.17 (≈ 0.355 µM)	CN1CC2(CC3OC2(C)n2c4ccccc4c4c5c(c6c7ccccc7n3c6c42)C(=O)NC5)OC1=O (stereo not shown) [Compound 59]	1 (≈ 2.09 µM)	0.39 (≈ 0.815 µM)
–	0.06 (≈ 0.118 µM)	CC12OC(CC1(O)CN1CCCCC1)n1c3ccccc3c3c4c(c5c6ccccc6n2c5c31)CNC4=O (stereo not shown) [Compound 41]	> 1	0.07 (≈ 0.138 µM)
–	0.88 (≈ 1.59 µM)	COC(=O)C1(O)CC2OC1(C)n1c3ccccc3c3c4c(c5c6ccccc6n2c5c31)C(=O)N(CCN(C)C)C4=O (stereo not shown) [Compound 69]	> 1	0.68 (≈ 1.23 µM)
0.053	0.2 (≈ 0.355 µM)	CC12OC(CC13CN(CC=NNC(=N)N)C(=O)O3)n1c3ccccc3c3c4c(c5c6ccccc6n2c5c31)CNC4=O (stereo not shown) [Compound 63]	0.45 (≈ 0.8 µM)	0.64 (≈ 1.14 µM)
0.031	0.23 (≈ 0.443 µM)	C[C@]12O[C@H](C[C@]1(O)C=NNC1=NCCN1)n1c3ccccc3c3c4c(c5c6ccccc6n2c5c31)CNC4=O [Compound 51]	0.5 (≈ 0.962 µM)	1 (≈ 1.92 µM)
–	0.27 (≈ 0.548 µM)	CN1CC2(CC3OC2(C)n2c4ccccc4c4c5c(c6c7ccccc7n3c6c42)C(=O)NC5=O)OC1=O (stereo not shown) [Compound 75]	–	0.18 (≈ 0.365 µM)
–	0.14 (≈ 0.267 µM)	CC12OC(CC1(O)CN1CCSCC1)n1c3ccccc3c3c4c(c5c6ccccc6n2c5c31)CNC4=O (stereo not shown) [Compound 39]	> 1	0.38 (≈ 0.724 µM)
0.02	0.19 (≈ 0.371 µM)	CC12OC(CC1(O)CNCC(O)CO)n1c3ccccc3c3c4c(c5c6ccccc6n2c5c31)CNC4=O (stereo not shown) [Compound 43]	0.52 (≈ 1.01 µM)	> 1
0.10	0.18 (≈ 0.354 µM)	CC12OC(CC1(O)CN1CCOCC1)n1c3ccccc3c3c4c(c5c6ccccc6n2c5c31)CNC4=O (stereo not shown) [Compound 38]	–	0.3 (≈ 0.59 µM)
–	0.38 (≈ 0.749 µM)	CC12OC(CC1(O)CN1CCNCC1)n1c3ccccc3c3c4c(c5c6ccccc6n2c5c31)CNC4=O (stereo not shown) [Compound 40]	> 1	> 1
0.22	0.24 (≈ 0.512 µM)	CC12OC(CC1(O)CO)n1c3ccccc3c3c4c(c5c6ccccc6n2c5c31)C(=O)N(N)C4=O (stereo not shown) [Compound 72]	0.2 (≈ 0.427 µM)	0.37 (≈ 0.79 µM)
0.021	0.46 (≈ 0.932 µM)	CC12OC(CC1(O)C=NNC(=N)N)n1c3ccccc3c3c4c(c5c6ccccc6n2c5c31)CNC4=O (stereo not shown) [Compound 52]	0.4 (≈ 0.81 µM)	> 1
–	0.05 (≈ 0.0934 µM)	CC12OC(CC1(O)CNC(=O)C1CCCN1)n1c3ccccc3c3c4c(c5c6ccccc6n2c5c31)CNC4=O (stereo not shown) [Compound 35]	0.27 (≈ 0.504 µM)	0.26 (≈ 0.485 µM)

Source: patent publication US4923986A, “Derivatives of physiologically active substance K-252” (Kyowa Hakko Kogyo Co., Ltd., priority 1988, dated 1990)
